Experimental data published in patent publication US10017451B2, “Lactic acid extraction” (PURAC BIOCHEM BV, priority 2011, dated 2018).

Assays:
Format in all cases: physicochemical
[1] = Stability of solvents in contact with lactic acid feed solution, gas chromatography (Example 6); conditions: 60° C.
Procedure: This experiment was conducted to compare the stability of two solvents, MIBK and Isoamyl alcohol in contact with the lactic acid feed solution as prepared in example 1. For each solvent a closed glass reactor was filled with 20 g of solvent and 20 g of the lactic acid feed solution, put in an oven to maintain a temperature of 60° C. and shaken continuously.
After 3 hrs, 24 hrs (1 day) and 168 hrs (1 week) the shaking was stopped for 1 hour to allow the phases to settle, a sample was taken from the solvent top layer, and the composition of the solvent top layer analyzed by gas chromatography.

[2] = MIBK solubility in aqueous MgCl2 solution, gas chromatography (Example 8); conditions: aqueous phase
Procedure: Hereafter, the stirring is stopped, the phases were allowed to separate and a sample was taken from the aqueous bottom phase. The concentration of MIBK in this sample was determined by gas chromatography.

[3] = Lactic acid distribution ratio MIBK/aqueous MgCl2 solution (Example 7); conditions: initial lactic acid 20 wt %
Description: Forward extraction and back extraction as used in the method of the invention are based on the difference in solubility of the lactic acid in water and the organic solvent at different temperatures. The solubility of a compound in one solvent relative to another solvent can be expressed in terms of the distribution ratio (DR). This ratio gives an indication how a compound will be distributed over the aqueous phase (e.g. the aqueous mixture) and the organic phase (e.g. the organic liquid) in a two-phase system at equilibrium. The distribution ratio may be defined as the ratio of the lactic acid concentration dissolved in the organic phase ([lactic acid]organic) over the concentration of the lactic acid dissolved in water ([lactic acid]water) provided that the two phases are in equilibrium with each other: DR=[lactic acid]organic/[lactic acid]water(1)
The resulting two phase system was stirred at 20° C. or 60° C. for 30 minutes with sufficient speed to ensure that both phases are well dispersed. Hereafter, the stirring is stopped, the phases were allowed to separate and samples were taken from both phases. The concentration of lactic acid (wt %) in these samples was determined by potentiometric titration. Hereafter the distribution ratio was calculated as the ratio of the lactic acid concentration (wt %) in the MIBK organic solvent phase divided by the lactic acid concentration (wt %) in the aqueous phase.

Compound: CC(=O)CC(C)C [MIBK, methyl-isobutyl-ketone]
- changes in purity of the solvent ([1]; after 168 hrs, GC of solvent top layer): no changes in the purity of the MIBK could be detected
- MIBK solubility ([2]; MgCl2 0 wt %, 20° C.): 1.8 wt %
- MIBK solubility ([2]; MgCl2 0 wt %, 60° C.): 1.4 wt %
- MIBK solubility ([2]; MgCl2 15 wt %, 20° C.): 0.48 wt %
- MIBK solubility ([2]; MgCl2 15 wt %, 60° C.): 0.20 wt %
- MIBK solubility ([2]; MgCl2 30 wt %, 20° C.): 0.17 wt %
- MIBK solubility ([2]; MgCl2 30 wt %, 60° C.): 0.11 wt %

Compound: CC(C)CCO [isoamyl alcohol]
- isoamyllactate concentration ([1]; 24 hrs and 168 hrs samples): 22.5 area %
- isoamyllactate formed ([1]; after 3 hrs, GC of solvent top layer): 14.6 area %

Compound: CC(O)C(=O)O (stereo not drawn) [lactic acid]
- Lactic acid distribution ratio ([3]; MgCl2 0 wt %, 20° C.): 0.16 wt %/wt %
- Lactic acid distribution ratio ([3]; MgCl2 0 wt %, 60° C.): 0.19 wt %/wt %
- Lactic acid distribution ratio ([3]; MgCl2 10.5 wt %, 20° C.): 0.33 wt %/wt %
- Lactic acid distribution ratio ([3]; MgCl2 10.5 wt %, 60° C.): 0.37 wt %/wt %
- Lactic acid distribution ratio ([3]; MgCl2 16.0 wt %, 20° C.): 0.49 wt %/wt %
- Lactic acid distribution ratio ([3]; MgCl2 16.0 wt %, 60° C.): 0.56 wt %/wt %
